According to patent publication US10837909B2, “Super-resolution fluorescent imaging probe” (The University of Tokyo, priority 2015, dated 2020):
One block for each compound: values may come before it.

Key:
[1] = Laser flash photolysis: nucleophilic addition reaction rate constant and time constant with glutathione; assay type: physicochemical; details: pH 7.4, 10 mM sodium phosphate buffer, 295 K
Method: Change over time of transient absorption of the probe compounds of the present invention at various glutathione concentrations was measured using laser flash photolysis, and a nucleophilic addition reaction rate constant k and a nucleophilic addition reaction rime constant T in the nucleophilic addition-dissociation equilibrium reaction between glutathione and the probe compounds of the present invention were calculated. The solution conditions were […] aqueous solution and pH 7.4 (10 mM sodium phosphate buffer). A measurement condition was 295 K and a light source was a 10 mJ/pulse XeCl excimer laser ([…]).

[2] = Measurement of the fluorescence quantum yield; assay type: physicochemical; details: 1 μM probe, 1% DMSO aqueous solution, pH 7.4 (200 mM sodium phosphate buffer)
Method: Fluorescence quantum yield of the probe compounds according to the present invention was measured. The solution conditions were 1 μM probe compound, 1% DMSO aqueous solution, and pH 7.4 (200 mM sodium phosphate buffer).

Compound: CN(C)c1ccc2c(c1)[Si](C)(C)C1=C/C(=[N+](\C)CCCC(=O)O)C=CC1=C2 [Compound 12]
k (nucleophilic addition reaction rate constant) ([1]; glutathione 0.1 mM): 7.49 s⁻¹
τ (nucleophilic addition reaction time constant) ([1]; glutathione 0.1 mM): 134 ms
k (nucleophilic addition reaction rate constant) ([1]; glutathione 0.5 mM): 42.8 s⁻¹
τ (nucleophilic addition reaction time constant) ([1]; glutathione 0.5 mM): 23.4 ms
k (nucleophilic addition reaction rate constant) ([1]; glutathione 1 mM): 75.6 s⁻¹
τ (nucleophilic addition reaction time constant) ([1]; glutathione 1 mM): 13.2 ms
k (nucleophilic addition reaction rate constant) ([1]; glutathione 5 mM): 444 s⁻¹
τ (nucleophilic addition reaction time constant) ([1]; glutathione 5 mM): 2.25 ms
k (nucleophilic addition reaction rate constant) ([1]; glutathione 10 mM): 1080 s⁻¹
τ (nucleophilic addition reaction time constant) ([1]; glutathione 10 mM): 0.93 ms
Fluorescence quantum yield [2]: 0.46

Fluorescence quantum yield [2]: 0.69
Compound: CC1(C)C2=C/C(=N/CCCC(=O)O)C=CC2=Cc2ccc(N)cc21 [Compound 32]
k (nucleophilic addition reaction rate constant) ([1]; glutathione 0.1 mM): 15.8 s⁻¹
τ (nucleophilic addition reaction time constant) ([1]; glutathione 0.1 mM): 63.1 ms
k (nucleophilic addition reaction rate constant) ([1]; glutathione 0.5 mM): 61.7 s⁻¹
τ (nucleophilic addition reaction time constant) ([1]; glutathione 0.5 mM): 16.2 ms
k (nucleophilic addition reaction rate constant) ([1]; glutathione 1 mM): 106 s⁻¹
τ (nucleophilic addition reaction time constant) ([1]; glutathione 1 mM): 9.45 ms
k (nucleophilic addition reaction rate constant) ([1]; glutathione 5 mM): 592 s⁻¹
τ (nucleophilic addition reaction time constant) ([1]; glutathione 5 mM): 1.69 ms
k (nucleophilic addition reaction rate constant) ([1]; glutathione 10 mM): 1410 s⁻¹
τ (nucleophilic addition reaction time constant) ([1]; glutathione 10 mM): 0.71 ms

Compound: CN(C)c1ccc2c(c1)[Si](C)(C)C1=CC(=[N+](C)C)C=CC1=C2 [Compound 5]
k (nucleophilic addition reaction rate constant) ([1]; glutathione 0.1 mM): 14.3 s⁻¹
τ (nucleophilic addition reaction time constant) ([1]; glutathione 0.1 mM): 69.9 ms
k (nucleophilic addition reaction rate constant) ([1]; glutathione 0.5 mM): 95.8 s⁻¹
τ (nucleophilic addition reaction time constant) ([1]; glutathione 0.5 mM): 10.4 ms
k (nucleophilic addition reaction rate constant) ([1]; glutathione 1 mM): 176.2 s⁻¹
τ (nucleophilic addition reaction time constant) ([1]; glutathione 1 mM): 5.67 ms
k (nucleophilic addition reaction rate constant) ([1]; glutathione 5 mM): 976 s⁻¹
τ (nucleophilic addition reaction time constant) ([1]; glutathione 5 mM): 1.02 ms
k (nucleophilic addition reaction rate constant) ([1]; glutathione 10 mM): 2290 s⁻¹
τ (nucleophilic addition reaction time constant) ([1]; glutathione 10 mM): 0.436 ms
Fluorescence quantum yield [2]: 0.39

Compound: C[Si]1(C)C2=CC(=N)C=CC2=C(c2ccccc2)c2ccc(N)cc21 [Compound 2]
k (nucleophilic addition reaction rate constant) ([1]; glutathione 0.5 mM): 1.21 s⁻¹
τ (nucleophilic addition reaction time constant) ([1]; glutathione 0.5 mM): 823 ms
k (nucleophilic addition reaction rate constant) ([1]; glutathione 1 mM): 2.05 s⁻¹
τ (nucleophilic addition reaction time constant) ([1]; glutathione 1 mM): 487 ms
k (nucleophilic addition reaction rate constant) ([1]; glutathione 5 mM): 11.0 s⁻¹
τ (nucleophilic addition reaction time constant) ([1]; glutathione 5 mM): 90.7 ms
k (nucleophilic addition reaction rate constant) ([1]; glutathione 10 mM): 25.0 s⁻¹
τ (nucleophilic addition reaction time constant) ([1]; glutathione 10 mM): 40.1 ms

Compound: CN(C)c1ccc2c(c1)[Si](C)(C)C1=C/C(=[N+](\C)CCCC(=O)ON3C(=O)CCC3=O)C=CC1=C2 [Compound 17]
Fluorescence quantum yield [2]: 0.46

Compound: CN(C)c1ccc2c(c1)[Si](C)(C)C1=C/C(=[N+](\C)CCCC(=O)NCCOCCOCCCCCCCl)C=CC1=C2 [Compound 16]
Fluorescence quantum yield [2]: 0.49

Fluorescence quantum yield [2]: 0.70
Compound: CC1(C)C2=CC(=N)C=CC2=Cc2ccc(N)cc21 [Compound 28]
k (nucleophilic addition reaction rate constant) ([1]; glutathione 0.1 mM): 21.1 s⁻¹
τ (nucleophilic addition reaction time constant) ([1]; glutathione 0.1 mM): 47.5 ms
k (nucleophilic addition reaction rate constant) ([1]; glutathione 0.5 mM): 195 s⁻¹
τ (nucleophilic addition reaction time constant) ([1]; glutathione 0.5 mM): 5.12 ms
k (nucleophilic addition reaction rate constant) ([1]; glutathione 1 mM): 371 s⁻¹
τ (nucleophilic addition reaction time constant) ([1]; glutathione 1 mM): 2.69 ms
k (nucleophilic addition reaction rate constant) ([1]; glutathione 5 mM): 2170 s⁻¹
τ (nucleophilic addition reaction time constant) ([1]; glutathione 5 mM): 0.46 ms
k (nucleophilic addition reaction rate constant) ([1]; glutathione 10 mM): 5260 s⁻¹
τ (nucleophilic addition reaction time constant) ([1]; glutathione 10 mM): 0.19 ms

Compound: CN(C)c1ccc2c(c1)[Si](C)(C)C1=C/C(=[N+](\C)CCCC(=O)NCc3ccc(COc4nc(N)nc5[nH]cnc45)cc3)C=CC1=C2 [Compound 14]
Fluorescence quantum yield [2]: 0.27
